{"source": "patent US6548527B2", "about": "“Treatments for immune-mediated ear disorders” (The General Hospital Corporation, priority 2000, dated 2003)", "format_in_all_cases": "in vivo, human", "key": {"[1]": {"tested_on": "patients with progressive IMCVD", "assay": "Etanercept treatment of twelve patients with progressive IMCVD (25 mg subcutaneous injection twice a week)", "from_the_text": "Study subjects were suspected of having IMCVDs mainly based on (1) the presence of bilateral sensorineural healing loss or typical symptoms of Meniere's disease with a recent progressive decline, (2) a clear response to high dose prednisone therapy, and/or (3) the presence of anti-HSP70 antibodies. Reasons for attempting etanercept therapy in these study patients included: (a) failure of conventional treatments in seven, (b) side effects of conventional treatment in three, (c) the need for corticosteroid sparing agent with a quick onset of action given intolerable corticosteroid side effects and rapidly progressive worsening of hearing in three, and (d) the patient's wish to avoid conventional agents in two given their known side effects of sub-optimal efficacy profile.\nOf the 12 patients, six (50%) were women. The mean age was 47 (range, 24 to 71), and the mean duration of disease prior to the etanercept therapy was 13 years (range, 2 to 25 years). All 12 patients had both ears involved, 2 had predominantly one ear involvement with good hearing in the contralateral ear, 4 had significant loss of hearing in both ears, and 6 had lost all functional hearing in one ear and were treated with etanercept for a recent progressive decline of the remaining hearing. […] Patient # 9 had symmetric polyarthralgia, morning stiffness without documented synovitis, negative rheumatoid factor and positive anti-nuclear antibodies. Four of the 10 patients who were tested had antibodies to HSP70. Previous anti-rheumatic treatments included methotrexate in five, cyclophosphamide (CYTOXAN) in two, hydroxycholoquine in one, and chlorambucil in one. All patients received a trial of diuretics and sodium-restricted diet. Two of the patients had hypertension, one had diet-controlled diabetes mellitus, one had hyperlipidemia, and one had hypothyroidism.\nEtanercept was started while the patients were on high dose prednisone (except in 2 cases, who were already off prednisone because of intolerable side-effects). The prednisone dose was then tapered off over 2 to 6 weeks (except in 2 cases) depending on disease severity, response to prednisone, and the severity of side effects of prednisone. The mean duration of the etanercept treatment in the 12 patients was 7 months (82 patient-months; range, 5 to 10 months) and mean follow-up from the start date of etanercept therapy was 8 months (range: 5.66 to 12 months). Seven of the twelve patients were still on etanercept at the end of study period (mean duration of 7 months) and the remaining five discontinued the drug. Four patients discontinued the drug at the end of the target period (6 months), and one patient was switched to infliximab (Remicade™), another TNF-receptor blocker for less than desired benefit from etanercept (duration 9 months). A criteria of prednisone response was based on improvements in hearing, vertigo, and equilibrium, as previously published by Sismanis et al. (Otolaryngology—Head and Neck Surgery 116(2): 146-52, 1997).\nThe main outcome measurement was improvement or stabilization of hearing by air conduction pure tone audiograms and/or by word discrimination scores. A slightly modified version of improvement criteria which was previously used to evaluate the efficacy of glucocorticoids was employed for IMCVDs: >15 dB at one frequency, 10 dB at two or more consecutive frequencies, or 15% increase in word discrimination scores (Sismanis et al., supra; Rauch, Annals of the New York Academy of Sciences 830:203-210, 1997). The audiogram before initiation of etanercept was compared with the most recent audiogram. When present, vertigo, tinnitus, and fullness were assessed using a 3-level response scale: better, no change, and worse. Outcomes were based on measurements at the farthest follow-up from the initiation of etanercept or at the declaration of no improvement in hearing by etanercept therapy, whichever came first. More than a 5-month follow-up was available for all patients (range: 5-12 months) […]"}, "patients with IMCVD [2]": {"tested_on": "patients with IMCVD", "assay": "Initial trials of leflunomide in patients with IMCVD (20 mg orally every day)", "details": "of 3 patients, 5-6 month or 1-year regimen"}, "patients with IMCVD [3]": {"tested_on": "patients with IMCVD", "assay": "Two other separate trials of etanercept in additional IMCVD patients"}, "patients with IMCVD [4]": {"tested_on": "patients with IMCVD", "assay": "Infliximab trial in patients with IMCVD (3 mg/kg intravenous infusion every two months)", "details": "of 3 patients; 3 mg/kg i.v. infusion every two months, at least 6 months", "protocol": "In addition to etanercept, another TNF antagonist, infliximab, was also tested for efficacy. In this trial, 3 patients with IMCVD were treated with 3 mg/kg body weight of Remicade™ by intravenous infusion every two months. Treatment was continued for at least 6 months, and the patients were monitored."}, "[5]": {"details": "single patient #1 on etanercept"}}, "data": [{"compound": "Cc1oncc1C(=O)Nc1ccc(C(F)(F)F)cc1", "note": "[leflunomide, N-(4′-trifluoromethylphenyl)-5-methylisoxazole-4-carboxamide]", "values": [{"measurement": "overall hearing after leflunomide was later added, patient #8", "setting": "[1]; single patient #8, leflunomide added to etanercept", "result": "did not make any difference"}, {"measurement": "hearing outcome after addition of leflunomide to etanercept, patient #11", "setting": "[1]; single patient #11, leflunomide added to etanercept after deterioration", "result": "rescued and stabilized"}, {"measurement": "patients exhibiting positive results", "setting": "patients with IMCVD [2]", "result": 2, "unit": "patients"}]}, {"compound": "etanercept", "values": [{"measurement": "patients who had aural fullness with resolution or significant improvement of symptoms", "setting": "[1]; 8 out of 9 patients who had aural fullness", "result": 89, "unit": "%"}, {"measurement": "patients on prednisone able to taper off prednisone without affecting their hearing", "setting": "[1]; 10 patients on variable doses of prednisone to maintain hearing, after starting etanercept", "result": "Eight of the 10"}, {"measurement": "patients with improvement or stabilization of hearing and tinnitus", "setting": "[1]; 11 out of 12 patients, 25 mg s.c. twice a week, follow-up 5-12 months", "result": 92, "unit": "%"}, {"measurement": "adverse reactions", "setting": "[1]; 12 patients, 25 mg s.c. twice a week", "result": "no adverse reactions except for mild transient injection-site reactions in a few patients"}, {"measurement": "patients who had vertigo with resolution or significant improvement of symptoms", "setting": "[1]; Seven out of 8 patients who had vertigo", "result": 88, "unit": "%"}, {"measurement": "side effects during the follow-up period", "setting": "[1]; follow-up period", "result": "no appreciable side effects"}, {"measurement": "persistence of benefit until the last visit, time after starting etanercept", "setting": "[1]; human, in vivo", "result": "5 to 12", "unit": "months"}, {"measurement": "hearing fluctuation, tinnitus, aural fullness and vertigo, patient #1", "setting": "[1]; [5]", "result": "the fluctuation stabilized and their tinnitus, aura fullness, and vertigo resolved"}, {"measurement": "overall hearing, patient #1", "setting": "[1]; [5]", "result": "did not have any significant improvement"}, {"measurement": "tinnitus and vertigo after switching to etanercept, patient #8", "setting": "[1]; single patient #8", "result": "improvement"}, {"measurement": "hearing outcome, patient #8 switched to etanercept", "setting": "[1]; single patient #8, previously losing hearing on methotrexate and chlorambucil", "result": "stabilized their hearing after being switched to etanercept but at a lower level than their baseline"}, {"measurement": "hearing outcome, patient #11 on etanercept", "setting": "[1]; single patient #11", "result": "initial dramatic improvement after starting etanercept but deteriorated after 5 months"}, {"measurement": "patients who experienced improvement in tinnitus, aural fullness, and vertigo", "setting": "[1]; summary of 12 patients", "result": "approximately 90%"}, {"measurement": "patients who stabilized their rapidly progressing hearing loss", "setting": "[1]; summary of 12 patients", "result": 33, "unit": "%"}, {"measurement": "patients with remarkable improvement of hearing", "setting": "[1]; summary of 12 patients", "result": 58, "unit": "%"}, {"measurement": "patients showing positive outcomes", "setting": "patients with IMCVD [3]; in sum, out of 18 patients with IMCVD treated with etanercept (all trials)", "result": 16, "unit": "patients"}, {"measurement": "outcome of IMCVD symptoms in additional patients", "setting": "patients with IMCVD [3]; six additional patients in two other separate trials", "result": "all showed improvement or stabilization of IMCVD symptoms"}]}, {"compound": "infliximab: chimeric monoclonal antibody that binds to TNF-α, marketed as Remicade", "values": [{"measurement": "hearing after switch from etanercept to infliximab, patient #11", "setting": "[1]; single patient #11, switched after 9 months on etanercept", "result": "remained unchanged"}, {"measurement": "patients exhibiting positive results", "setting": "patients with IMCVD [4]", "result": 3, "unit": "patients"}]}]}
